{"source": "patent US11786555B2", "about": "“RAR selective agonists in combination with immune modulators for cancer immunotherapy” (IO THERAPEUTICS, INC., priority 2017, dated 2023)", "key": {"BM stromal cells": {"test_system": "BM stromal cells", "assay": "CYP26A1 expression in BM stromal cells exposed to soluble factors", "format": "cell-based", "settings": "soluble factors tested", "description": "(§1) qRT-PCR. Total RNA was extracted using the RNeasy Mini Kit (QIAGEN) according to the manufacturer's instructions. cDNA was synthesized by reverse transcription using the iScript cDNA Synthesis Kit (Bio-Rad). qRT-PCR was performed with iTaq SYBR Green Supermix (Bio-Rad) using sequence specific primers. Gene expression was normalized to GAPDH, and relative quantification was calculated using ΔΔCt. All experiments were performed in duplicate and run on the Bio-Rad CFX96 machine."}, "Kasumi-1 cells": {"test_system": "Kasumi-1 cells", "assay": "CFU experiments, off and on stroma", "format": "cell-based", "settings": "10^−6 M ATRA, IRX5183, or 10^−7 M AM80", "excerpt": "(§2) Data across three independent experiments."}, "NB4 cells": {"test_system": "NB4 cells", "assay": "CFU experiments, off and on stroma", "format": "cell-based", "settings": "10^−7 M ATRA, IRX5183, or 10^−8 M AM80", "excerpt": "as §2"}, "OCI-AML3 cells": {"test_system": "OCI-AML3 cells", "assay": "CFU experiments, off and on stroma", "format": "cell-based", "settings": "10^−6 M ATRA, IRX5183, or 10^−7 M AM80", "excerpt": "as §2"}, "[1]": {"test_system": "H929 cells and CD138+ primary MM cells", "assay": "qRT-PCR of B cell and PC markers in MM cells, liquid or BM stroma co-culture", "format": "cell-based, human", "description": "FIG. 3A-H depicts the relative concentration of plasma markers BCL6 (FIG. 3A and E), BLIMP-1 (FIG. 3B and F), XBPS-1 (FIG. 3C and G), and CHOP (FIG. 3D and H) in multiple myeloma (MM) cell lines H929 (FIG. 3A-D) or CD138+ MM cells from three different patient samples (FIG. 3E-H) incubated for 5 days either in the absence of stroma (Liquid), with or without AGN (RA receptor antagonist AGN194310, 1 μM), or co-cultured with BM mesenchymal cells (Stroma), with or without R115 (CYP26 inhibitor R115866, 1 μM) or IRX (CYP26-resistant retinoid IRX5183, 1 μM). Expression in untreated liquid conditions was set at 1. Data are representative of 3 independent experiments with similar results and represent the mean ±SEM. *P≤0.05 and **P≤0.01, by repeated-measures 1-way ANOVA for determination of statistical significance between groups; P values were corrected for multiple comparisons using Dunnett's test. Ctrl, control; max, maximum.\n(§3) Coculture experiments. 24-well plates were coated with 0.1% gelatin in PBS for 30 min at 37° C. The gelatin solution was removed, and the stromal cells were cultured overnight at a density of 5×10^4 cells/well to obtain a confluent monolayer. At that time, MM cell lines or primary MM cells (1×10^5 in 2 ml) were added to the stroma cultures. The stroma cocultures were incubated at 37° C. in RPMI containing 10% FCS, L-glutamine, and P/S, with or without AGN194310 (1 μM for 5 days), R115866 (1 μM for 5 days), IRX5183 (1 μM for 5 days), or BTZ (2.5 nM for 48 hr).\nas §1\nThe BM microenvironment (also called “niche”) limits PC differentiation by modulating retinoid signaling. A population of MM progenitors, phenotypically similar to B cells, is intrinsically resistant to BTZ and contributes to MRD and relapse. To investigate whether the BM niche plays a role in determining the phenotype of MM cells, the mRNA expression of B cell and PC markers in MM H929 cell lines (FIG. 3A-D) and MM CD138+ primary cells (FIG. 3E-H) was analyzed following co-culture with mouse BM stroma using human-specific primers. […] In contrast, co-culture of MM cells with BM stroma decreased the mRNA expression of B lymphocyte-induced maturation protein 1 (BLIMP1) and spliced X box-binding protein 1 (XBP1s) (FIG. 3B, C, F, G), which are critical mediators of PC differentiation.\nThe BM niche regulates hematopoietic stem cell (HSC) differentiation by expressing the retinoid-inactivating enzyme CYP26. CYP26 enzymes were highly expressed in BM mesenchymal cells, while their expression was barely detectable in MM cells. Since retinoid signaling promotes PC differentiation and potentiates Ig secretion, it was determined whether stromal CYP26 is responsible for inducing a B cell phenotype in MM cells. To this end, co-culture conditions were treated with the CYP26 inhibitor R115866 (R115) or the CYP26-resistant RA receptor α-selective (RARα-selective) retinoid IRX5183 (IRX)."}, "[2]": {"test_system": "H929 cells and primary CD138+ MM cells", "assay": "clonogenic or cellular recovery of MM cells after BTZ treatment", "format": "cell-based, human", "settings": "for sensitivity of MM cells to BTZ: BTZ 2.5 nM for 48 hours", "description": "FIG. 4A-B depicts the clonogenic recovery (CFU) of H929 cells (FIG. 4A) or cellular recovery of primary CD138+ MM cells from 3 different patient samples (FIG. 4B). MM cells were treated with bortezomib (BTZ; 2.5 nM) for 48 hours after being incubated for 5 days either in the absence of stroma (Liquid), with or without the pan-RAR inhibitor AGN (1 μM), or in the presence of BM mesenchymal cells (Stroma), with or without the CYP26 inhibitor R115 (1 μM) or the CYP26-resistant retinoid IRX (1 μM). Clonogenic or cellular recovery was normalized to each condition in the absence of BTZ.\nas §3\nClonogenic assays. After treatment, MM cells were collected, washed with PBS, and plated at a density of 5,000 cells/ml in 1 ml of 1.32% methylcellulose supplemented with 30% FBS, 10% BSA, L-glutamine, P/S, and 0.1 mM β-ME. Cells were plated in triplicate in 35-mm culture dishes, incubated at 37° C., and scored for the presence of colonies 14 days later.\nA RA-low microenvironment induces BTZ resistance. To determine whether decreased retinoid signaling contributes to BTZ resistance within the BM niche, MM cell lines and MM CD138+ primary cells were incubated with BM stroma for 5 days, followed by BTZ treatment."}, "H929 cells": {"test_system": "H929 cells", "assay": "mobilization experiment, BTZ after separation from BM stroma", "format": "cell-based, human", "description": "FIG. 5 depicts clonogenic recovery of H929 cells treated with BTZ (2.5 nM). MM cells were incubated for 5 days in the absence (Liquid) or presence of BM mesenchymal cells (Stroma), with or without R115 (1 μM). Following this preincubation, H929 cells were separated from BM stroma, cultured in fresh media for 0 to 48 hours, and then treated with BTZ (2.5 nM) for 48 hours. Clonogenic recovery was normalized to each condition in the absence of BTZ.\nMobilization experiments. MM cells were separated from BM stromal cells by gently pipetting several times around the well. Detached cells were centrifuged, resuspended in fresh media, and incubated in a 24-well plate for 1 hr at 37° C. During this short incubation period, contaminating stromal cells attached to the well, while MM cells remained in suspension. MM cells were then recovered by gently pipetting. This protocol was used for qRT-PCR and CFU coculture experiments. […]\nClonogenic assays. […] Cells were plated in triplicate in 35-mm culture dishes, incubated at 37° C., and scored for the presence of colonies 14 days later.\nStrategies to overcome microenvironment-dependent chemoprotection have focused on mobilization of cancer cells from the BM niche into the peripheral circulation. It was analyzed whether the change in phenotype and subsequent BTZ resistance of MM cells were lost upon separation from the BM stroma, a process that mimics mobilization. […]"}, "H929 Luc+ cells": {"test_system": "H929 Luc+ cells", "assay": "systemic MM xenograft, bioluminescence", "format": "in vivo, mouse", "settings": "monotherapy, 4 weeks; BTZ 0.5 mg/kg i.p. twice weekly, IRX 10 mg/kg once daily", "description": "FIG. 6 depicts bioluminescent images of systemic MM xenografts. Following engraftment of H929 Luc+ cells, mice were treated with IRX (n=4), BTZ (n=5), or a combination of both (n=5) for 4 weeks. Data represent the mean±SEM of the fold change in bioluminescence (photons/second) from day 0.\nFor the systemic MM model, 2×10^6 Luc+/GFP+ H929 cells were injected via the tail vein into 16-week-old male NSG mice. After engraftment, as determined by an exponential increase in bioluminescence, mice were treated with BTZ (0.5 mg/kg i.p.) twice weekly and with IRX (10 mg/kg) once daily. Tumor burden was assessed by bioluminescence, as above.\nTo test whether retinoids can enhance BTZ activity in MM, a systemic MM xenograft was developed by injecting 2×10^6 H929 luciferase+ (Luc+) cells via the tail vein of non-obese, diabetic, severe combined immunodeficiency IL-2 receptor y-KO (NSG) mice. The animals were randomized to receive IRX, BTZ, or a combination of both, and disease burden was followed weekly by bioluminescence imaging (FIG. 6)."}, "[3]": {"test_system": "H929 Luc+ cells with WT or Smo-KO stroma", "assay": "subcutaneous xenograft model of MM-niche interactions, bioluminescence", "format": "in vivo, mouse", "settings": "BTZ 0.5 mg/kg i.p. twice weekly", "description": "FIG. 9 depicts bioluminescent images of mice showing tumor burden during 4 weeks of treatment with IRX (10 mg/kg), BTZ (0.5 mg/kg), or the combination. Anterior tumors consisted of a combination of MM.1S luciferase^+ cells and Smo^FI/FI BM stroma cells transduced with a control vector (WT BM stroma). Posterior tumors consisted of a combination of MM.1S luciferase^+ cells and Smo^FI/FI BM stroma cells transduced with Cre-recombinase (Smo KO BM stroma).\nFIG. 10 depicts the fold change in bioluminescence (photons/second) of tumors during 4 weeks of treatment. The change in bioluminescence for each tumor […].\nMouse xenografts. 1×10^6 H929 Luc+ cells and 1×10^6 mouse BM stromal cells were resuspended in 100 μl […]®, diluted with RPMI (1:1), and injected subcutaneously into 16-week-old male NSG mice. After 4 days, treatment with BTZ (0.5 mg/kg i.p. twice weekly) and IRX (10 mg/kg i.p. daily) was initiated. Tumor burden was assessed by bioluminescence using the In Vivo Imaging System (PerkinElmer). For imaging, mice were exposed to 120 mg/kg D-luciferin via intraperitoneal injection […] before imaging and were anesthetized using isoflurane. Images were analyzed with Living Image Software, version 2.5 (PerkinElmer), and data were quantified as photons/second.\nTo study to what extent an RA-low environment created by the BM stroma and enhanced by MM cells via paracrine Hedgehog signaling contributes to BTZ resistance, a xenograft model of MM-niche interactions was developed. Each mouse carried 2 subcutaneous tumors consisting of H929 Luc+ cells and either WT (anterior tumors) or Smo-KO stroma (posterior tumors). Mice were treated with IRX (10 mg/kg i.p. daily), BTZ (0.5 mg/kg i.p. twice weekly), or a combination of both. The growth of tumors bearing WT or Smo-KO stroma was not different in untreated or IRX-treated groups (FIGS. 9 and 10). […] While some tumors in the treatment group receiving combined IRX and BTZ appeared to have regressed completely, even after anatomical study, this was not the case for all the mice in this group."}}}
{"molecule": "IL-6: cytokine, soluble factor produced by MM cells", "values": [{"measurement": "expression of CYP26A1 on BM stromal cells", "setting": "BM stromal cells", "value": "no significant effects"}]}
{"molecule": "CC1=C(/C=C/C(C)=C/C=C/C(C)=C/C(=O)O)C(C)(C)CCC1", "note": "[ATRA, all-trans retinoic acid]", "values": [{"measurement": "clonogenic growth (CFU), differentiation and elimination of AML", "setting": "Kasumi-1 cells", "value": "stroma blockage"}, {"measurement": "clonogenic growth (CFU), differentiation and elimination of AML", "setting": "NB4 cells", "value": "stroma blockage"}, {"measurement": "clonogenic growth (CFU), differentiation and elimination of AML", "setting": "OCI-AML3 cells", "value": "stroma blockage"}]}
{"molecule": "TNF-α", "values": [{"measurement": "expression of CYP26A1 on BM stromal cells", "setting": "BM stromal cells", "value": "no significant effects"}]}
{"molecule": "CCC(CC)C(c1ccc(Nc2nc3ccccc3s2)cc1)n1cncn1", "note": "(stereo not drawn) [Compound R115866]", "values": [{"measurement": "expression of differentiation markers by qRT-PCR or flow cytometry", "setting": "[1]; liquid conditions compared with BM stroma", "value": "did not significantly affect the expression of differentiation markers"}, {"measurement": "mRNA expression of B cell and PC markers (BCL6, BLIMP1, XBP1s, CHOP)", "setting": "[1]; stroma co-cultures, 1 μM for 5 days", "value": "restored all markers to levels comparable to those of liquid control conditions"}, {"measurement": "effect on stroma-induced BTZ resistance", "setting": "[2]; stroma co-culture, 1 μM for 5 days, then BTZ 2.5 nM", "value": "overcome"}, {"measurement": "development of BTZ-resistant phenotype", "setting": "H929 cells; co-culture treated with 1 μM, then separation and BTZ", "value": "prevented the development of a BTZ-resistant phenotype"}]}
{"molecule": "CC(C)C[C@H](NC(=O)[C@H](Cc1ccccc1)NC(=O)c1cnccn1)B(O)O", "note": "[BTZ, bortezomib]", "values": [{"measurement": "sensitivity of MM cells to BTZ", "setting": "[2]; absence of BM stroma (liquid)", "value": "highly sensitive to BTZ"}, {"measurement": "sensitivity of MM cells to BTZ", "setting": "[2]; after 5 days incubation with BM stroma", "value": "induced BTZ resistance"}, {"measurement": "BTZ resistance after separation from BM stroma", "setting": "H929 cells; 5-day stroma co-culture, fresh media 0 to 48 hr, then BTZ 2.5 nM", "value": "remained partially resistant to BTZ for up to 48 hr following detachment from stroma"}, {"measurement": "tumor burden (bioluminescence)", "setting": "H929 Luc+ cells", "value": "decreased tumor growth compared with untreated controls"}, {"measurement": "tumor response (bioluminescence)", "setting": "[3]; tumors carrying Smo-KO stroma", "value": "significant response"}, {"measurement": "tumor response (bioluminescence)", "setting": "[3]; tumors with WT stroma", "value": "refractory to BTZ treatment"}]}
